US11866518B2, “Bicyclic peptide ligands specific for TSLP” (BicycleTx Limited, priority 2020, dated 2024)
Like-named read-outs stand apart in the source and are kept apart here. *1 amine or outer side, *2 acyl side, *3 side chain or, on linkers, in order; H or OH if unused. Where a SMILES comes first, the peptide text is derived from it. Bridges are numbered along the chain shown (N, C = ends). TATA = O=C(CC[*:1])N1CN(C(=O)CC[*:2])CN(C(=O)CC[*:3])C1

How the values were obtained:
TSLP [1] = biological target: T1, TSLP (Homo sapiens, UniProt Q969D9); experiment: Human peripheral blood mononuclear cell assay (TSLP-induced CCL17/TARC); type: cell-based; set-up: host or cells: added to human PBMCs from healthy donors
T1 sequence (Q969D9 29-159): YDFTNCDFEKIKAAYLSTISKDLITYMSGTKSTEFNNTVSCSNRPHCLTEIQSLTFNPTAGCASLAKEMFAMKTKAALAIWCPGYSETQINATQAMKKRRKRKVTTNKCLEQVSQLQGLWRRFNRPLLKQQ
Description: Human peripheral blood mononuclear cells (PMBCs) were obtained from heparinized whole blood (healthy donors) by density gradient centrifugation using Lymphoprep (StemCell Technologies, Vancouver, BC) according to the manufacturers instructions. The PBMCs were washed twice with PBS containing 2 mM EDTA and 2% fetal calf serum (FCS) and reconstituted in RPMI containing 10% FCS and 2% PenStrep at a final concentration of 3 million cells/mL. This cell suspension (100 μL) was aliquoted into the wells of a 96-well flat bottom tissue culture plate. 5 μL of bicycle peptide or vehicle (0.1% DMSO in complete medium) was then added and mixed with 5 μL of TSLPvehicle (complete medium). […] The plate was incubated for 30 minutes are rt. 10 μL of this mixture was added to cells and the plate was incubated for 24 hours in a 10% CO2, humidified incubator at 37° C. The plate was centrifuged at 300×g for 5 min and the collected supernatants frozen at −20° C. for subsequent CCL17/TARC analysis.
CCL17/TARC was determined by MSD (MesoScale Discovery, Maryland, USA) according to the manufacturer's instructions.

TSLP [2] = biological target: T1, TSLP; experiment: Human TSLP Surface Plasmon Resonance (SPR) binding assay; set-up: The resulting construct spCD33-6×HN-TEV-hTSLP(29-159)-Avi; 6xHN tag with TEV site (N, cleaved yes); made in house; host or cells: Expi293F cells; details: biotinylated human TSLP immobilized on streptavidin chip; 20° C.; steady-state or kinetic 1:1 fit; read-out: hTSLP SPR Kd
[3] = read-out: CCL17 % Inhibition @ 10 μM, […] TSLP
[4] = human PBMCs, 10 μM peptide, 50 pM TSLP, 24 hours, read-out: CCL17 % Inhibition @ 10 μM, 50 pM TSLP

Structure (SMILES)	inhibition at 10 µM (TSLP [1]; [3]) [%]	Kd (TSLP [2]) [nM]	inhibition at 10 µM (TSLP [1]; [4]) [%]
CC(C)C[C@@H]1NC(=O)[C@H](Cc2c[nH]c3ccccc23)NC(=O)[C@H](Cc2c[nH]c3ccccc23)NC(=O)[C@H](CO)NC(=O)[C@H](CO)NC(=O)[C@@H]2CSCCC(=O)N3CN(CN(C3)C(=O)CCSC[C@H](NC(=O)[C@@H](NC(=O)[C@H](CCC(N)=O)NC(=O)[C@@H](NC(=O)[C@@H](NC(=O)[C@H](C)NC(=O)[C@@H](N)Cc3ccc(O)cc3)[C@@H](C)O)[C@@H](C)O)C(C)C)C(=O)N[C@@H](CCCNC(=N)N)C(=O)N[C@@H](CC(=O)O)C(=O)N[C@@H](CC(C)C)C(=O)N[C@@H](CC(=O)O)C(=O)N3CCC[C@H]3C(=O)N[C@@H](Cc3c[nH]c4ccccc34)C(=O)N[C@@H]([C@@H](C)O)C(=O)N2)C(=O)CCSC[C@@H](C(=O)N[C@@H](C)C(N)=O)NC1=O [Example 171, YATTQV-(SEQ ID NO: 122)-A]	36	48	–
CC(C)C[C@H](NC(=O)[C@H](Cc1c[nH]cn1)NC(=O)[C@@H]1CSCCC(=O)N2CN3CN(C2)C(=O)CCSC[C@H](NC(=O)[C@H](CC(=O)O)NC(=O)[C@H](CCC(=O)O)NC(=O)[C@H](CC(C)C)NC(=O)[C@H](Cc2c[nH]c4ccccc24)NC(=O)[C@H](Cc2c[nH]cn2)NC(=O)[C@@H](NC(=O)[C@H](C)N)CSCCC3=O)C(=O)N[C@@H](Cc2c[nH]c3ccccc23)C(=O)N[C@@H](CCCNC(=N)N)C(=O)NCC(=O)N[C@@H](Cc2ccccc2)C(=O)N1)C(=O)N[C@@H](CCC(=O)O)C(N)=O [Example 75, A-(SEQ ID NO: 56)-HLE] (H-ACHWLEDCWRGFCHLE-NH2; linker 2-8-13 via TATA)	-2	92	–
CSCC[C@H](NC(=O)[C@@H](N)[C@@H](C)O)C(=O)N[C@@H](CCC(=O)O)C(=O)N[C@@H](Cc1ccc(O)cc1)C(=O)N[C@@H](CCCNC(=N)N)C(=O)N[C@@H](CC(=O)O)C(=O)N[C@H]1CSCCC(=O)N2CN3CN(C2)C(=O)CCSC[C@H](NC(=O)[C@H](CC(=O)O)NC(=O)[C@H](CCC(=O)O)NC(=O)[C@H](CC(C)C)NC(=O)[C@H](Cc2c[nH]c4ccccc24)NC(=O)[C@H](CCC(N)=O)NC1=O)C(=O)N[C@@H](Cc1c[nH]c2ccccc12)C(=O)N[C@@H](CCCNC(=N)N)C(=O)NCC(=O)N[C@@H](Cc1ccccc1)C(=O)N[C@H](C(=O)N[C@@H](C)C(N)=O)CSCCC3=O [Example 56, TMEYRD-(SEQ ID NO: 38)-A]	40	–	–
CSCC[C@H](NC(=O)[C@H](CC(=O)O)NC(=O)CNC(=O)[C@H](CC(=O)O)NC(=O)[C@H](C)NC(=O)[C@@H]1CSCCC(=O)N2CN3CN(C2)C(=O)CCSC[C@H](NC(=O)[C@H](CC(=O)O)NC(=O)[C@H](CCC(=O)O)NC(=O)[C@H](CC(C)C)NC(=O)[C@H](Cc2c[nH]c4ccccc24)NC(=O)[C@H](CCC(N)=O)NC(=O)[C@@H](NC(=O)[C@H](C)N)CSCCC3=O)C(=O)N[C@@H](Cc2c[nH]c3ccccc23)C(=O)N[C@@H](CCCNC(=N)N)C(=O)NCC(=O)N[C@@H](Cc2ccccc2)C(=O)N1)C(=O)N[C@@H](CC(C)C)C(N)=O [Example 42, A-(SEQ ID NO: 38)-ADGDML]	47	–	< 20
CC(=O)N[C@H]1CSCCC(=O)N2CN3CN(C2)C(=O)CCSC[C@H](NC(=O)[C@H](CC(=O)O)NC(=O)[C@H](CCC(=O)O)NC(=O)[C@H](CC(C)C)NC(=O)[C@H](Cc2c[nH]c4ccccc24)NC(=O)[C@H](CCC(N)=O)NC1=O)C(=O)N[C@@H](Cc1c[nH]c2ccccc12)C(=O)N[C@@H](CCCNC(=N)N)C(=O)NCC(=O)N[C@@H](Cc1ccc2ccccc2c1)C(=O)N[C@H](C(N)=O)CSCCC3=O [Example 50, Ac-(SEQ ID NO: 42)]	33	–	–
CC(=O)N[C@H]1CSCCC(=O)N2CN3CN(C2)C(=O)CCSC[C@H](NC(=O)[C@H](CC(=O)O)NC(=O)[C@H](CCC(=O)O)NC(=O)[C@H](CC(C)C)NC(=O)[C@H](Cc2c[nH]c4ccccc24)NC(=O)[C@H](CCC(N)=O)NC1=O)C(=O)N[C@@H](Cc1c[nH]c2ccccc12)C(=O)N[C@@H](CCCNC(=N)N)C(=O)NCC(=O)N[C@@H](Cc1ccc(F)cc1)C(=O)N[C@H](C(N)=O)CSCCC3=O [Example 17, Ac-(SEQ ID NO: 15)]	–	–	1
CC(=O)N[C@H]1CSCCC(=O)N2CN3CN(C2)C(=O)CCSC[C@H](NC(=O)[C@H](CC(=O)O)NC(=O)[C@H](CCC(=O)O)NC(=O)[C@H](CC(C)(C)C)NC(=O)[C@H](Cc2c[nH]c4ccccc24)NC(=O)[C@H](CCC(N)=O)NC1=O)C(=O)N[C@@H](Cc1c[nH]c2ccccc12)C(=O)N[C@@H](CCCNC(=N)N)C(=O)NCC(=O)N[C@@H](Cc1ccccc1)C(=O)N[C@H](C(N)=O)CSCCC3=O [Example 44, Ac-(SEQ ID NO: 39)]	52	–	–
CC(C)C[C@@H]1NC(=O)[C@H](Cc2c[nH]c3ccccc23)NC(=O)[C@H](CCC(N)=O)NC(=O)[C@@H](NC(=O)[C@H](C)N)CSCCC(=O)N2CN3CN(C2)C(=O)CCSC[C@H](NC(=O)[C@H](CC(=O)O)NC(=O)[C@H](CCC(=O)O)NC1=O)C(=O)N[C@@H](Cc1c[nH]c2ccccc12)C(=O)N[C@@H](CCCNC(=N)N)C(=O)NCC(=O)N[C@@H](Cc1ccccc1)C(=O)N[C@H](C(=O)N[C@@H](C)C(N)=O)CSCCC3=O [Example 68, A-(SEQ ID NO: 38)-A]	33	–	–
CC(=O)N[C@H]1CSCCC(=O)N2CN3CN(C2)C(=O)CCSC[C@H](NC(=O)[C@H](CC(=O)O)NC(=O)[C@H](CCC(=O)O)NC(=O)[C@H](CC(C)C)NC(=O)[C@H](Cc2c[nH]c4ccccc24)NC(=O)[C@H](CCC(N)=O)NC1=O)C(=O)N[C@@H](Cc1c[nH]c2ccccc12)C(=O)N[C@@H](CCCNC(=N)N)C(=O)NCC(=O)N[C@@H](Cc1cccc2ccccc12)C(=O)N[C@H](C(N)=O)CSCCC3=O [Example 47, Ac-(SEQ ID NO: 41)]	-7	–	–
CC(=O)N[C@H]1CSCCC(=O)N2CN3CN(C2)C(=O)CCSC[C@H](NC(=O)[C@H](CC(=O)O)NC(=O)[C@H](CCC(=O)O)NC(=O)[C@H](CC(C)C)NC(=O)[C@H](Cc2c[nH]c4ccccc24)NC(=O)[C@H](CCC(N)=O)NC1=O)C(=O)N[C@@H](Cc1c[nH]c2ccccc12)C(=O)N[C@@H](CCCNC(=N)N)C(=O)NCC(=O)N[C@@H](Cc1cccc(Cl)c1)C(=O)N[C@H](C(N)=O)CSCCC3=O [Example 32, Ac-(SEQ ID NO: 29)]	14	–	–
CC(C)C[C@@H]1NC(=O)[C@H](Cc2c[nH]c3ccccc23)NC(=O)[C@H](CCC(N)=O)NC(=O)[C@@H](NC(=O)[C@H](CCC(=O)O)NC(=O)[C@H](C)NC(=O)[C@H](CO)NC(=O)[C@H](CC(=O)O)NC(=O)[C@@H](NC(=O)CN)[C@@H](C)O)CSCCC(=O)N2CN3CN(C2)C(=O)CCSC[C@H](NC(=O)[C@H](CC(=O)O)NC(=O)[C@H](CCC(=O)O)NC1=O)C(=O)N[C@@H](Cc1c[nH]c2ccccc12)C(=O)N[C@@H](CCCNC(=N)N)C(=O)NCC(=O)N[C@@H](Cc1ccccc1)C(=O)N[C@H](C(=O)N[C@@H](C)C(N)=O)CSCCC3=O [Example 45, GTDSAE-(SEQ ID NO: 38)-A]	0	–	–
CC(=O)N[C@H]1CSCCC(=O)N2CN3CN(C2)C(=O)CCSC[C@H](NC(=O)[C@H](CC(=O)O)NC(=O)[C@H](CCC(=O)O)NC(=O)[C@H](CC(C)C)NC(=O)[C@H](Cc2c[nH]c4ccccc24)NC(=O)[C@H](CCC(N)=O)NC1=O)C(=O)N[C@@H](Cc1c[nH]c2ccccc12)C(=O)N[C@@H](CCCNC(=N)N)C(=O)NCC(=O)N[C@@H](Cc1ccc(Cl)cc1)C(=O)N[C@H](C(N)=O)CSCCC3=O [Example 14, Ac-(SEQ ID NO: 12)]	14	–	–
CC(=O)N[C@H]1CSCCC(=O)N2CN3CN(C2)C(=O)CCSC[C@H](NC(=O)[C@H](CC(=O)O)NC(=O)[C@H](CCC(=O)O)NC(=O)[C@H](CC(C)C)NC(=O)[C@H](Cc2c[nH]c4ccccc24)NC(=O)[C@H](CCC(N)=O)NC1=O)C(=O)N[C@@H](Cc1c[nH]c2ccccc12)C(=O)N[C@@H](CCCNC(=N)N)C(=O)NCC(=O)N[C@@H](Cc1ccccc1)C(=O)N[C@H](C(N)=O)CSCCC3=O [Example 79, Ac-(SEQ ID NO: 38)]	-18	–	–
CC(=O)N[C@H]1CSCCC(=O)N2CN3CN(C2)C(=O)CCSC[C@H](NC(=O)[C@H](CC(=O)O)NC(=O)[C@H](CCC(=O)O)NC(=O)[C@H](CC(C)C)NC(=O)[C@H](Cc2c[nH]c4ccccc24)NC(=O)[C@H](CCC(N)=O)NC1=O)C(=O)N[C@@H](Cc1c[nH]c2ccccc12)C(=O)N[C@@H](CCCNC(=N)N)C(=O)NCC(=O)N[C@@H](Cc1ccc(F)c(F)c1)C(=O)N[C@H](C(N)=O)CSCCC3=O [Example 22, Ac-(SEQ ID NO: 20)]	–	–	41
